Assay results reported in US20060156421A1, “High throughput screening methods for anti-metastatic compounds” (priority 2004, published 2006).

Experiments:
[1] = test system: VEGF-class receptors; details: literature citations; cited from earlier work
[2] = test system: dRet; assay: Drosophila screening: rough eye phenotype of GMR-dRet flies fed compound in microtiter wells; assay type: in vivo, Drosophila melanogaster; details: compound in growth medium
Method: (§1) Accordingly, methods, related apparatus and kits for high throughput screening assays involve the preparation of microtiter plates each with multiple wells, wherein each well initially contains one or more Drosophila embryos with a transgene and an amount of a Drosophila growth medium. The embryos develop while feeding on the growth medium. The precise age of the embryos at the time they are plated matters less than the fact that they are all about the same age, to permit accurate evaluation of the possible effects of the candidate compound on larval and pupal development.
To prepare the microtiter plates, for example, 96-well microtiter plates are used, such as those commonly commercially available and typically used for various laboratory assay techniques, including other high throughput drug assay techniques. Into each well is pipetted 50-100 μl of standard Drosophila growth medium. An exemplary range of about 50 to about 100 μl is a balance between (i) providing sufficient food so as not to place undue feeding stress on the developing flies and (ii) providing sufficient air space for the third larval instars to find sufficient wall space to pupate and for minimal stress on the developing larvae and pupae. Any one of several standard Drosophila growth medium recipes as known in the art of breeding Drosophila for research can be used. […]

[3] = test system: Drosophila; details: Drosophila melanogaster, in vivo
Source text: Lethality of candidate compounds for Drosophila can be used to detect and quantify toxicity of candidate compounds. Well known standard statistical methods are used to help distinguish chance results from real toxic effects. Lethality is quantified, for example, by determining the number of Drosophila that fail to develop successfully to adulthood and applying suitable statistical analyses to determine statistical significance. Lethal dose evaluations can be used to quantify the extent of toxicity. […] In another exemplary example, the emergence of most Drosophila adults within a microwell indicates a lowered probability that an introduced compound is toxic.
FIG. 3 illustrates in part the results of screening compound ZD6474 according to the screening methods of the present invention. […] Therefore, the estimated therapeutic index (ratio of concentrations that are toxic to Drosophila to concentrations that reduce the retinal phenotype is […].

[4] = test system: dRet^MEN2B; assay: Drosophila screening: rough eye phenotype of GMR-dRet^MEN2B flies fed compound in microtiter wells; assay type: in vivo, Drosophila melanogaster
Method: as §1
To prepare the microtiter plates, for example, 96-well microtiter plates are used, such as those commonly commercially available and typically used for various laboratory assay techniques, including other high throughput drug assay techniques. Into each well is pipetted 50-100 μl of standard Drosophila growth medium. An exemplary range of about 50 to about 100 μl is a balance between (i) providing sufficient food so as not to place undue feeding stress on the developing flies and (ii) providing sufficient air space for the third larval instars to find sufficient wall space to pupate and for minimal stress on the developing larvae and pupae. Any one of several standard Drosophila growth medium recipes as known in the art of breeding Drosophila for research can be used.
In an exemplary embodiment, a candidate compound, or cocktail of more than one compound, that has been selected for screening is prepared in EtOH or DMSO/aqueous solution. In an exemplary embodiment, EtOH is used. Although DMSO can be used, it can be toxic if it reaches final concentrations of more than 0.3% of the growth medium. The compound in solution is added and allowed to diffuse through the growth medium for an initial period of about 16 to about 24 hours. Alternatively, the compound in solution is mixed with the food by pipetting, by shaking, or by sonicating. […]

[5] = test system: Ret; details: previously tested, Carlomagno et al., 2002; cited from earlier work

SMILES: COc1cc2c(Nc3ccc(Br)cc3F)ncnc2cc1OCC1CCN(C)CC1 [ZD6474]
- efficacy for VEGF-class receptors [1]: some efficacy
- inhibition of severity of the rough eye phenotype of dRet [2]: strongly inhibit
- concentrations at which toxicity was observed [3]: ≥ 2500 µM
- estimated therapeutic index (ratio of concentrations toxic to Drosophila to concentrations that reduce the retinal phenotype) [3]: 31
- inhibition of severity of the rough eye phenotype of dRet^MEN2B ([4]; Drosophila eye, compound in growth medium): strongly inhibit
- rescue of the dRet^MEN2B phenotype ([4]; FIG. 3 panels, varying concentration): concentration-dependent
- doses at which at least partial rescue was observed ([4]; retinal phenotype, lowest effective concentration): ≥ 0.04 mM
- effect on Ret activity in a tissue culture model [5]: reduce Ret activity
